Experimental data from the NIST ThermoML archive (doi:10.1016/j.jct.2012.03.003).

Test: xn = mol fraction of the nth substance listed
Details: Liquid, Vibrating tube method

COc1cc2c(cc1O)CC1c3c(cc(O)c(OC)c3-2)CCN1C (stereo not given) [boldine] + CCCO
Details	mass density [kg/m3]
362.92 K, 3000 kPa, x1 = 0.0077	759.06
362.92 K, 4000 kPa, x1 = 0.0046	756.24
362.92 K, 4000 kPa, x1 = 0.0077	760.16
362.92 K, 5000 kPa, x1 = 0.0046	757.34
362.92 K, 5000 kPa, x1 = 0.0077	761.28
362.92 K, 6000 kPa, x1 = 0.0046	758.46
362.92 K, 6000 kPa, x1 = 0.0077	762.37
362.92 K, 7000 kPa, x1 = 0.0046	759.55
362.92 K, 7000 kPa, x1 = 0.0077	763.46
362.92 K, 8000 kPa, x1 = 0.0046	760.63
362.92 K, 8000 kPa, x1 = 0.0077	764.54
362.92 K, 9000 kPa, x1 = 0.0046	761.7
362.92 K, 9000 kPa, x1 = 0.0077	765.61
362.92 K, 10000 kPa, x1 = 0.0046	762.78
362.92 K, 10000 kPa, x1 = 0.0077	766.65
362.92 K, 11000 kPa, x1 = 0.0046	763.79
362.92 K, 11000 kPa, x1 = 0.0077	767.68
362.92 K, 12000 kPa, x1 = 0.0046	764.85
362.92 K, 12000 kPa, x1 = 0.0077	768.72
362.92 K, 13000 kPa, x1 = 0.0046	765.87
362.92 K, 13000 kPa, x1 = 0.0077	769.74
362.92 K, 14000 kPa, x1 = 0.0046	766.88
362.92 K, 14000 kPa, x1 = 0.0077	770.74
362.92 K, 15000 kPa, x1 = 0.0046	767.86
362.92 K, 15000 kPa, x1 = 0.0077	771.74
362.92 K, 16000 kPa, x1 = 0.0046	768.85
362.92 K, 16000 kPa, x1 = 0.0077	772.72
362.92 K, 17000 kPa, x1 = 0.0046	769.81
362.92 K, 17000 kPa, x1 = 0.0077	773.68
362.92 K, 18000 kPa, x1 = 0.0046	770.76
362.92 K, 18000 kPa, x1 = 0.0077	774.6
362.92 K, 19000 kPa, x1 = 0.0046	771.7
362.92 K, 19000 kPa, x1 = 0.0077	775.55
362.92 K, 20000 kPa, x1 = 0.0046	772.56
362.92 K, 20000 kPa, x1 = 0.0077	776.45
362.93 K, 1000 kPa, x1 = 0.0112	763.51
362.93 K, 2000 kPa, x1 = 0.0112	764.63
362.93 K, 3000 kPa, x1 = 0.0112	765.74
362.93 K, 4000 kPa, x1 = 0.0112	766.83
362.93 K, 5000 kPa, x1 = 0.0112	767.93
362.93 K, 6000 kPa, x1 = 0.0112	769
362.93 K, 7000 kPa, x1 = 0.0112	770.08
362.93 K, 8000 kPa, x1 = 0.0112	771.14
362.93 K, 9000 kPa, x1 = 0.0112	772.39
362.93 K, 10000 kPa, x1 = 0.0112	773.24
362.93 K, 11000 kPa, x1 = 0.0112	774.29
362.93 K, 12000 kPa, x1 = 0.0112	775.28
362.93 K, 13000 kPa, x1 = 0.0112	776.29
362.93 K, 14000 kPa, x1 = 0.0112	777.28
362.93 K, 15000 kPa, x1 = 0.0112	778.25
362.93 K, 16000 kPa, x1 = 0.0112	779.21
362.93 K, 17000 kPa, x1 = 0.0112	780.16
362.93 K, 18000 kPa, x1 = 0.0112	781.11
362.93 K, 19000 kPa, x1 = 0.0112	782.03
362.93 K, 20000 kPa, x1 = 0.0112	782.93
362.94 K, 1000 kPa, x1 = 0.0018	746.61
362.94 K, 2000 kPa, x1 = 0.0018	747.75
362.94 K, 3000 kPa, x1 = 0.0018	748.91
362.94 K, 4000 kPa, x1 = 0.0018	750.05
362.94 K, 5000 kPa, x1 = 0.0018	751.17
362.94 K, 6000 kPa, x1 = 0.0018	752.28
362.94 K, 7000 kPa, x1 = 0.0018	753.38
362.94 K, 8000 kPa, x1 = 0.0018	754.49
362.94 K, 9000 kPa, x1 = 0.0018	755.54
362.94 K, 10000 kPa, x1 = 0.0018	756.62
362.94 K, 11000 kPa, x1 = 0.0018	757.69
362.94 K, 12000 kPa, x1 = 0.0018	758.72
362.94 K, 13000 kPa, x1 = 0.0018	759.77
362.94 K, 14000 kPa, x1 = 0.0018	760.8
362.94 K, 15000 kPa, x1 = 0.0018	761.77
362.94 K, 16000 kPa, x1 = 0.0018	762.79
362.94 K, 17000 kPa, x1 = 0.0018	763.76
362.94 K, 18000 kPa, x1 = 0.0018	764.68
362.94 K, 19000 kPa, x1 = 0.0018	765.63
362.94 K, 20000 kPa, x1 = 0.0018	766.58
